Experimental data as given in ChEMBL document CHEMBL1949671, “Design and synthesis of estrogen receptor degradation inducer based on a protein knockdown strategy” (Bioorg Med Chem Lett, 2012).
The source made the active and inactive calls. The rule behind the calls is not given here.

Legend:
[1] = target: T1, Baculoviral IAP repeat-containing protein 2/Estrogen receptor (Homo sapiens) (UniProt P03372+Q13490); test: Binding affinity to cIAP1/ERalpha in human MCF7 cells assessed as proteasomal degradation of ERalpha after 6 hrs by Western blot analysis in presence of proteasome inhibitor MG132; format: cell-based
[2] = target: T1, Baculoviral IAP repeat-containing protein 2/Estrogen receptor (Homo sapiens); test: Binding affinity to cIAP1/ERalpha in human MCF7 cells assessed as proteasomal degradation of ERalpha at 10 to 30 uM after 6 hrs by Western blot analysis; format: cell-based

Row | Activity [1] | Activity [2] | Structure (SMILES)
1 | inactive | Active | CCC(=C(c1ccc(O)cc1)c1ccc(OCCN(C)C(=O)CCCCNC(=O)[C@H](CC(C)C)NC(=O)[C@@H](O)[C@H](N)Cc2ccccc2)cc1)c1ccccc1
2 | inactive | Active | CCC(=C(c1ccc(O)cc1)c1ccc(OCCN(C)C(=O)CCCCCCNC(=O)[C@H](CC(C)C)NC(=O)[C@@H](O)[C@H](N)Cc2ccccc2)cc1)c1ccccc1
3 | inactive | Active | CCC(=C(c1ccc(O)cc1)c1ccc(OCCN(C)C(=O)CCNC(=O)[C@H](CC(C)C)NC(=O)[C@@H](O)[C@H](N)Cc2ccccc2)cc1)c1ccccc1
